Conditions: Liquid; for mass density: Buoyancy - hydrostatic balance with magnetic suspension - one sinker

C=CCCCCC [1-heptene]
Conditions | mass density [kg/m3] | viscosity [mPa·s]
298.15 K, 98 kPa | 694.51 | 0.362
298.15 K, 24510 kPa | 718.23 | 0.451
298.15 K, 49030 kPa | 734.7 | 0.544
298.15 K, 98060 kPa | 765.58 | 0.739
298.15 K, 147100 kPa | 783.57 | 0.942
298.15 K, 196130 kPa | 800.85 | 1.226
298.15 K, 245160 kPa | 816.79 | 1.499
303.15 K, 98 kPa | 689.57 | 0.346
303.15 K, 24510 kPa | 715 | 0.431
303.15 K, 49030 kPa | 733.1 | 0.52
303.15 K, 98060 kPa | 761.82 | 0.706
303.15 K, 147100 kPa | 780.46 | 0.903
303.15 K, 196130 kPa | 797.46 | 1.162
303.15 K, 245160 kPa | 815.3 | 1.429
312.83 K, 98 kPa | 680.92 | 0.314
322.39 K, 98 kPa | 672.17 | 0.288
327.47 K, 24510 kPa | 697.97 | 0.351
327.48 K, 98060 kPa | 746.71 | 0.575
327.49 K, 98 kPa | 668.07 | 0.278
327.49 K, 49030 kPa | 718.4 | 0.429
327.63 K, 147100 kPa | 767.87 | 0.741
327.63 K, 196130 kPa | 786.42 | 0.925
327.67 K, 245160 kPa | 805.58 | 1.136
340.21 K, 98 kPa | 655.95 | 0.251
354.73 K, 98 kPa | 643.5 | 0.224
359.63 K, 245160 kPa | 791.61 | 0.883
359.74 K, 147100 kPa | 750.76 | 0.587
359.75 K, 196130 kPa | 773.85 | 0.726
359.87 K, 98060 kPa | 730.37 | 0.457
359.96 K, 49030 kPa | 699.31 | 0.34
360.03 K, 98 kPa | 638.93 | 0.215
360.06 K, 24510 kPa | 672.86 | 0.278
392.4 K, 245160 kPa | 776.73 | 0.709
392.46 K, 196130 kPa | 758.9 | 0.591
392.61 K, 147100 kPa | 734.09 | 0.48
392.68 K, 49030 kPa | 676.29 | 0.277
392.74 K, 98060 kPa | 714.89 | 0.377
392.79 K, 24510 kPa | 646.48 | 0.226
423.82 K, 196130 kPa | 745.35 | 0.489
424.04 K, 147100 kPa | 717.45 | 0.4
424.07 K, 245160 kPa | 760.78 | 0.574
424.11 K, 24510 kPa | 619.97 | 0.182
424.17 K, 49030 kPa | 653.79 | 0.226
424.17 K, 98060 kPa | 697.03 | 0.311
452.22 K, 196130 kPa | 733.49 | 0.434
452.25 K, 98060 kPa | 676.86 | 0.28
452.27 K, 245160 kPa | 750.38 | 0.503
452.28 K, 147100 kPa | 702.95 | 0.355
452.34 K, 49030 kPa | 628.89 | 0.198
452.35 K, 24510 kPa | 595.84 | 0.16
473.28 K, 196130 kPa | 723.12 | 0.407
473.33 K, 147100 kPa | 692.3 | 0.333
473.35 K, 245160 kPa | 737.15 | 0.47
473.47 K, 98060 kPa | 665.45 | 0.262
473.56 K, 49030 kPa | 612.5 | 0.183
473.7 K, 24510 kPa | 578.48 | 0.148

C=CCCCC [hex-1-ene]
Conditions | mass density [kg/m3] | viscosity [mPa·s]
298.15 K, 98 kPa | 669.71 | 0.271
298.15 K, 24510 kPa | 696.93 | 0.337
298.15 K, 49030 kPa | 714.95 | 0.415
298.15 K, 98060 kPa | 744.22 | 0.55
298.15 K, 147100 kPa | 763.36 | 0.705
298.15 K, 196130 kPa | 778.91 | 0.876
298.15 K, 245160 kPa | 793.17 | 1.093
303.15 K, 98 kPa | 664.87 | 0.256
303.15 K, 24510 kPa | 690.93 | 0.321
303.15 K, 49030 kPa | 711.55 | 0.395
303.15 K, 98060 kPa | 741.4 | 0.525
303.15 K, 147100 kPa | 761.37 | 0.67
303.15 K, 196130 kPa | 776.19 | 0.84
303.15 K, 245160 kPa | 791.19 | 1.034
312.92 K, 98 kPa | 655.77 | 0.232
325.17 K, 98 kPa | 644.12 | 0.21
325.99 K, 98060 kPa | 729.28 | 0.442
326 K, 24510 kPa | 675.1 | 0.274
326.02 K, 49030 kPa | 694.93 | 0.328
326.05 K, 147100 kPa | 750.05 | 0.561
326.12 K, 196130 kPa | 767.98 | 0.694
326.15 K, 245160 kPa | 783.2 | 0.836
364.25 K, 245160 kPa | 767.68 | 0.628
364.63 K, 196130 kPa | 751.74 | 0.54
364.69 K, 49030 kPa | 670.17 | 0.254
364.73 K, 24510 kPa | 645.55 | 0.214
364.75 K, 98060 kPa | 706.69 | 0.346
364.83 K, 147100 kPa | 731.74 | 0.437
398.25 K, 147100 kPa | 715.97 | 0.363
398.35 K, 245160 kPa | 753.74 | 0.516
398.37 K, 196130 kPa | 736.05 | 0.444
398.43 K, 24510 kPa | 618.11 | 0.17
398.78 K, 98060 kPa | 687.13 | 0.287
398.87 K, 49030 kPa | 645.8 | 0.211
422.37 K, 245160 kPa | 743.17 | 0.456
422.71 K, 196130 kPa | 726.21 | 0.389
422.74 K, 147100 kPa | 703.54 | 0.319
422.9 K, 98060 kPa | 672.81 | 0.252
423.1 K, 49030 kPa | 630.04 | 0.184
423.18 K, 24510 kPa | 598.39 | 0.146
452.77 K, 24510 kPa | 575.45 | 0.124
453.14 K, 49030 kPa | 608.12 | 0.16
453.14 K, 196130 kPa | 712.63 | 0.338
453.19 K, 98060 kPa | 656.91 | 0.218
453.28 K, 147100 kPa | 687.84 | 0.277
453.52 K, 245160 kPa | 732.58 | 0.397
471.55 K, 196130 kPa | 704.21 | 0.315
471.64 K, 245160 kPa | 725.42 | 0.371
471.73 K, 49030 kPa | 598.79 | 0.15
471.78 K, 98060 kPa | 646.27 | 0.204
471.92 K, 24510 kPa | 560.56 | 0.115
472.02 K, 147100 kPa | 680.82 | 0.26

Reference: the NIST ThermoML archive (doi:10.1021/je401015e)
